According to publication PMC6792352, “Limited Chemical Structural Diversity Found to Modulate Thyroid Hormone Receptor in the Tox21 Chemical Library” (Environmental Health Perspectives, 2019):
Counter-ions that a name gives are not always drawn.

Assay: in vitro
Conditions: rat, gh3-tre-luc cells, AC50 (uM) modified / 1000

Row | Structure (SMILES) | CC50 at 24 h
1 | C=CCNC1=C2C[C@@H](C)C[C@H](OC)[C@H](O)[C@@H](C)/C=C(\C)[C@H](OC(N)=O)[C@@H](OC)/C=C\C=C(/C)C(=O)NC(=CC1=O)C2=O [Tanespimycin] | > 50 µM
2 | CCCOC(=O)CCCCC(=O)OCCC [Dipropyl hexanedioate] | > 90 µM
3 | NCC(O)CC(=O)O (stereo not shown) [4-Amino-3-hydroxybutyric acid] | > 50 µM
4 | Sc1ncnc2nc[nH]c12 [6-Mercaptopurine monohydrate] | > 90 µM
5 | CCCNC(=O)NS(=O)(=O)c1ccc(Cl)cc1 [Chlorpropamide] | > 90 µM
6 | CC(CO)(CO)C(=O)O [3-Hydroxy-2-(hydroxymethyl)-2-methylpropanoic acid] | > 90 µM
7 | COc1ccc(C(=O)NCc2ccc(OCCN(C)C)cc2)cc1OC [Itopride hydrochloride] | > 50 µM
8 | COc1cc(NC(C)CCCN)c2ncccc2c1 (stereo not shown) [Primaquine diphosphate] | 15 µM
9 | NNc1nc(-c2ccc([N+](=O)[O-])cc2)cs1 [2-Hydrazino-4-(4-nitrophenyl)thiazole] | 58.8 µM
10 | CCCCNC(=N)NC(=N)N [Buformin] | > 50 µM
11 | C[C@]12CCC(=O)C=C1C=C[C@@H]1[C@@H]2CC[C@@]2(C)[C@H]1CC[C@@]21CCC(=O)O1 [Canrenone] | > 50 µM
12 | Nc1nnc(S)[nH]1 [5-Amino-1,2-dihydro-3H-1,2,4-triazole-3-thione] | > 90 µM
13 | CC(CN)CCCN (stereo not shown) | > 90 µM
14 | CN(C(=O)CO)c1c(I)c(C(=O)NCC(O)CO)c(I)c(C(=O)NCC(O)CO)c1I (stereo not shown) [Iomeprol] | > 50 µM
15 | COc1c(O[C@@H]2O[C@H](CO)[C@@H](O)[C@H](O)[C@H]2O)cc2c(c1OC)-c1ccc(SC)c(=O)cc1[C@@H](NC(C)=O)CC2 [Thiocolchicoside] | > 20 µM
16 | OC[C@@H](O)[C@@H](O)[C@H](O)[C@@H](O)CO [D-Glucitol] | > 90 µM
17 | CC(=O)Oc1ccc2c3c1O[C@H]1[C@@H](OC(C)=O)C=C[C@H]4[C@@H](C2)N(C)CC[C@@]341 [(-)-Heroin hydrochloride] | > 100 µM
18 | CCOC(=O)[C@@](C)(N)Cc1ccc(O)c(O)c1 [Methyldopate hydrochloride] | > 20 µM
19 | CC(=O)N(CC(O)CO)c1c(I)c(C(=O)NCCO)c(I)c(C(=O)NCC(O)CO)c1I (stereo not shown) [Ioxilan] | > 50 µM

Row | Structure (SMILES) | CC50 at 24 h
20 | CC(C)(C)c1ccc(-c2ccc(C(C)(C)C)cc2)cc1 [4,4'-Di-tert-butylbiphenyl] | > 90 µM
21 | CN1CC[C@@]23CCCC[C@@H]2[C@@H]1Cc1ccc(O)cc13 [Dextrorphan tartrate] | > 50 µM
22 | O=C1CCN(c2ccccc2)N1 [3-Pyrazolidinone,1-phenyl-] | > 90 µM
23 | O=c1[nH]c(=O)n([C@H]2C[C@H](O)[C@@H](CO)O2)cc1/C=C/Br [Brivudine] | > 50 µM
24 | NC1CCCCC1 [Cyclohexylamine hydrochloride] | > 90 µM
25 | CCOC(=O)NNc1nncc2ccccc12 [Todralazine hydrochloride] | > 50 µM
26 | Cc1c(F)c(N2CCNC(C)C2)cc2c1c(=O)c(C(=O)O)cn2C1CC1 (stereo not shown) [Grepafloxacin hydrochloride] | > 50 µM
27 | O=C(O)[C@H](O)[C@@H](O)C(=O)O [L-Tartaric acid] | > 90 µM
28 | C[C@@H](O)[C@H]1C(=O)N2C(C(=O)[O-])=C(SC3Cn4cnc[n+]4C3)[C@H](C)[C@H]12 (stereo partly shown) [Biapenem] | > 50 µM
29 | CCC(C)(C)C1CCC(OC)CC1 (stereo not shown) [1-Methoxy-4-tert-pentylcyclohexane] | > 90 µM
30 | CC1(C)C[C@@H]1C(=O)N/C(=C\CCCCSC[C@H](N)C(=O)O)C(=O)O [Cilastatin sodium] | > 50 µM
31 | Cc1coc2c1CCC(C)C2 (stereo not shown) [Menthofuran] | > 90 µM
32 | O=c1c2ccccc2oc2ccccc12 [Xanthone] | > 90 µM
33 | CC(=O)O[C@]1(C(C)=O)CC[C@H]2[C@@H]3CCC4=CC(=O)CC[C@]4(C)[C@@]3(F)[C@@H](O)C[C@@]21C [Flurogestone acetate] | > 50 µM
34 | CCCCCCCC [Octane] | > 90 µM
35 | Cc1oc2c(NC(=O)c3c(Cl)cccc3Cl)cccc2c1C(C)(C)O [FR167356] | 19.6 µM
36 | CC(C)(C)C1CCCCC1O (stereo not shown) [2-tert-Butylcyclohexanol] | > 90 µM
37 | CCCCSCCCC [Dibutyl sulfide] | > 90 µM
38 | C=C(C)C(=O)OCCC[Si](Cl)(Cl)Cl [3-(Trichlorosilyl)propyl methacrylate] | > 90 µM

Row | Structure (SMILES) | CC50 at 24 h
39 | Cc1ncc(C[n+]2csc(CCOP(=O)(O)O)c2C)c(N)n1 [Monophosphothiamine] | > 50 µM
40 | CCN(CC)CC1CCCCN1CC(=O)N1c2ccccc2C(=O)Nc2cccnc21 (stereo not shown) [AF-DX 116] | > 50 µM
41 | C=CCCCCCCCCCCCC [1-Tetradecene] | > 90 µM
42 | CC(=O)Oc1cc(C(F)(F)F)ccc1C(=O)O [Triflusal] | > 20 µM
43 | COc1cc2c3cc1Oc1cc(ccc1O)C[C@@H]1c4c(cc(OC)c(O)c4Oc4ccc(cc4)C[C@@H]3N(C)CC2)CC[N+]1(C)C [(+)-Tubocurarine chloride hydrochloride] | > 50 µM
44 | NS(=O)(=O)c1cc(Cl)c(Cl)c(S(N)(=O)=O)c1 [Dichlorphenamide] | > 20 µM
45 | C=CCN(CC=C)CC=C [Triallylamine] | > 90 µM
46 | C[C@@H]1O[C@@H](OC[C@H]2O[C@@H](Oc3c(-c4ccc(O)c(O)c4)oc4cc(O)cc(O)c4c3=O)[C@H](O)[C@@H](O)[C@@H]2O)[C@H](O)[C@H](O)[C@H]1O [Rutin] | 57.3 µM
47 | CCCOC(=O)c1ccc(N)cc1 [Risocaine] | > 50 µM
48 | O=S1(=O)CCCO1 [1,3-Propane sultone] | > 90 µM
49 | N#CC(C#N)=Cc1ccc(O)c(O)c1 [Tyrphostin 23] | 16.8 µM
50 | CCCCCCCCCCCCCCC1CO1 (stereo not shown) [1,2-Epoxyhexadecane] | > 90 µM
51 | CN(C)[C@@H]1C(O)=C(C(N)=O)C(=O)[C@@]2(O)C(O)=C3C(=O)c4c(O)cccc4[C@@](C)(O)[C@H]3C[C@@H]12 [Tetracycline] | > 90 µM
52 | Clc1ccc([C@@H]2C[C@H]3CC[C@@H]2N3)cn1 [(+)-Epibatidine hydrochloride] | > 90 µM
53 | CCCCCCC(C)Nc1ccc(Nc2ccccc2)cc1 (stereo not shown) [N-(1-Methylheptyl)-N'-phenyl-1,4-benzenediamine] | 35.9 µM
54 | CC(=O)/N=c1/sc(S(N)(=O)=O)nn1C [Methazolamide] | > 20 µM
55 | CO/N=C(\C(=O)N[C@@H]1C(=O)N2C(C(=O)OCOC(=O)C(C)(C)C)=C(/C=C\c3scnc3C)CS[C@H]12)c1csc(N)n1 [Cefditorin pivoxil] | > 50 µM
56 | Oc1cc(Cl)cc(Cl)c1 [3,5-Dichlorophenol] | > 90 µM

Same assay, conditions: rat, gh3-tre-luc cells, AC50 (uM) modified / 1000, Tox21_110001=Tox21_110431; viability, 1 nM T3 present, 24 h

Row | Structure (SMILES) | CC50 at 24 h
57 | C[C@H](N)[C@H](O)c1ccccc1 [Phenylpropanolamine hydrochloride] | > 20 µM

Same assay, conditions: rat, gh3-tre-luc cells, AC50 (uM) modified / 1000, Tox21_110001=Tox21_200357; viability, 1 nM T3 present, 24 h

Row | Structure (SMILES) | CC50 at 24 h
58 | C=C(Cl)Cl [1,1-Dichloroethylene] | > 100 µM

Same assay, conditions: rat, gh3-tre-luc cells, AC50 (uM) modified / 1000, Tox21_110001=Tox21_201153; viability, 1 nM T3 present, 24 h

Row | Structure (SMILES) | CC50 at 24 h
59 | C[C@H]1CCCC(=O)CCC/C=C/c2cc(O)cc(O)c2C(=O)O1 [Zearalenone] | 41.1 µM

Same assay, conditions: rat, gh3-tre-luc cells, AC50 (uM) modified / 1000, Tox21_110001=Tox21_201548; viability, 1 nM T3 present, 24 h

Row | Structure (SMILES) | CC50 at 24 h
60 | CN=C=S [Methyl isothiocyanate] | > 90 µM

Same assay, conditions: rat, gh3-tre-luc cells, AC50 (uM) modified / 1000, Tox21_110001=Tox21_202917; viability, 1 nM T3 present, 24 h

Row | Structure (SMILES) | CC50 at 24 h
61 | C1CS1 [Ethylene sulfide] | > 90 µM

Same assay, conditions: rat, gh3-tre-luc cells, AC50 (uM) modified / 1000, Tox21_110001=Tox21_300912; viability, 1 nM T3 present, 24 h

Row | Structure (SMILES) | CC50 at 24 h
62 | CN=C=S [Methyl isothiocyanate] | > 200 µM

Same assay, conditions: rat, gh3-tre-luc cells, AC50 (uM) modified / 1000, Tox21_110001=Tox21_301125; viability, 1 nM T3 present, 24 h

Row | Structure (SMILES) | CC50 at 24 h
63 | CCOP(=O)(OCC)Oc1cc(C)nc(C(C)C)n1 [Diazoxon] | > 90 µM

Same assay, conditions: rat, gh3-tre-luc cells, AC50 (uM) modified / 1000, Tox21_110001=Tox21_303510; viability, 1 nM T3 present, 24 h

Row | Structure (SMILES) | CC50 at 24 h
64 | C[C@H]1CCCC(=O)CCC/C=C/c2cc(O)cc(O)c2C(=O)O1 [Zearalenone] | 23.5 µM
